A short description of data set [1]: in vivo. The note with it: C57BL/6, mouse, iv, 0.2 mg/kg.
A short description of a further data set: physchem. The settings on record: PBS buffer, pH 7.4.
Data set [2] is described as follows: in vivo. The settings on record: C57BL/6, mouse, iv, 0.2 mg/kg. The source holds these as a separate data set.
The nature of data set [3]: Oral bioavailability in C57/BL6 mouse at 30 mg/kg administered as homogeneous suspension in 0.5% methocel/0.25% tween20 in 50 mM acetate buffer (pH 5.5) and measured after 2 hrs by HPLC-MS/MS analysis. The class given is ADME, organism-based. The settings on record: in vivo.

From ChEMBL document CHEMBL5241094 (J Med Chem, 2021) come the findings set out here.

In general, Vd refers to the apparent volume that relates the amount in the body to the concentration in plasma or blood. Usually solubility stands for the concentration that dissolves in the medium under given conditions. What is called clearance is a measure of how efficiently the substance is removed, as volume per time. The low end stands for inefficient removal, the high end for efficient removal. In general, bioavailability refers to the share of a dose that reaches the circulation, judged against a reference dose that is usually intravenous. The low end stands for little systemic uptake, the high end for much systemic uptake.

SMILES strings stand for the structures. Values after ≈ are worked out from the molar mass of the structure shown.

`COc1ccc(S(=O)(=O)Nc2ccccc2C#Cc2ccc(C(=O)O)nc2)c2ncccc12` displayed a Vd at 2 h in “in vivo [1]” of 0.6 L/kg. In addition, in the data set “physchem”, the solubility at 24 h came out at 445 µg/mL (≈ 968 µM). This compound also gave a clearance at 2 h in “in vivo [2]” of 6.67 mL/min/kg.

With `CCOc1ccc(S(=O)(=O)Nc2ccccc2C#Cc2ccc(C(=O)O)nc2)c2ncccc12`, the Vd at 2 h in the data set “in vivo [1]” came to 0.4 L/kg. Moreover, the clearance at 2 h in the data set “in vivo [2]” is 10 mL/min/kg.

Regarding `Cc1cc(C#Cc2ccccc2NS(=O)(=O)c2c(C)ccc3cccnc23)cnc1C(=O)O`, the bioavailability in data set [3] amounted to 45%. For the same compound, the Vd at 2 h in the data set “in vivo [1]” came to 1.9 L/kg. In “physchem”, this compound registered a solubility at 24 h of 384 µg/mL (≈ 839 µM). Further, in the data set “in vivo [2]”, the clearance at 2 h is 31.7 mL/min/kg.
